Results as given in patent US7439356B2, “Substituted indan derivatives” (AstraZeneca AB, priority 1997, dated 2008).

- melting point: 248 to 249 °C
SMILES: CN1CCN(c2cccc3c2CC(C(=O)Nc2ccc(N4CCOCC4)cc2)C3)CC1 (stereo not shown) [Example 4, 4-(4-Methylpiperazin-1-yl)-N-(4-morpholinophenyl)indan-2-carboxamide]
